Experiment [1] has as its system indomethacin-induced gastric mucosal damage. As to the kind of experiment: Indomethacin-induced gastric mucosal damage (ulcer index, histology). The format is in vivo, Sprague-Dwaley rats. As for the experimental part:
Sprague-Dwaley rats (180-220 gm) were used for this study. Each group (control or experimental) of animals was maintained at 24±2° C. with 12 hrs lights and dark cycle. The animals were fasted for 24 hrs before the start of experiments. They were provided with water ad libitum to avoid food-induced increased acid secretion and its effect on gastric lesions. Gastric mucosal ulcer was developed by indomethacin as described (Pal, C; et al. Free Radic Biol Med, 49(2), 258-267; 2010, Biswas, K.; et al. J. Biol. Chem. 278:10993-11001; 2003, Bandyopadhyay, U.; et al. Life Sci. 71:2845-2865; 2002). Briefly, all the animals were divided into control, indomethacin and test compound group. Oral administration of indomethacin at a dose of 48 mg kg^−1 b.w was given to the fasted animals to induce gastric ulcer. […] Control group received vehicle only but no indomethacin. After 4 hrs of indomethacin treatment, the animals were sacrificed under proper euthanasia and stomachs were collected. The mucosal injury was scored as ulcer index as follows: 0=no pathology; 1=one pinhead ulcer. The sum of the total scores divided by the number of animals gave the ulcer index. All the in vivo studies were done in accordance with the institute animal ethical committee guidelines. To see the effect of SEGA on diclofenac induced gastric mucosal injury, gastric mucosal damage was developed by the oral administration of diclofenac (75 mg kg^−1) and the rest of the experiment was carried out in a similar way as described for indomethacin. Diclofenac produced pinhead ulcer like indomethacin and the mucosal injury was scored as ulcer index as described above. Ethanol-induced gastric mucosal injury was developed with oral administration of 1 ml of 50% ethanol (Banerjee, R. K. (2002) Life Sci 71, 2845-2865) and after 4 hrs the animals were sacrificed and cold-restrain stress induced mucosal injury was developed by immobilizing the animals at 4° C. for 3.5 hrs (Banerjee, R. K. (2002) Life Sci 71, 2845-2865, (2003) J Biol Chem 278, 10993-11001).
Stomach tissues from the animals of different groups were washed first washed several times with PBS (pH 7.4) and later fixed in 10% buffered formalin for 12 hrs at 25° C. The formalin-fixed tissues were then dehydrated and embedded in paraffin for preparing semi-thin sections (Maity, P.; et al. J. Biol. Chem. 283:14391-14401; 2008). The semi-thin sections were prepared using a microtome and taken over poly-L-lysine coated glass slide for hematoxylene-eosine staining. The stained sections were observed under microscope (Leica DM-2500, Germany) and were documented by high-resolution digital camera.

For experiment [2], the system named is diclofenac induced gastric mucosal injury. Description: Diclofenac-induced gastric mucosal injury (ulcer index). As to conditions: diclofenac 75 mg kg^−1 oral. In kind it is in vivo, Sprague-Dwaley rats. On the procedure:
Sprague-Dwaley rats (180-220 gm) were used for this study. Each group (control or experimental) of animals was maintained at 24±2° C. with 12 hrs lights and dark cycle. The animals were fasted for 24 hrs before the start of experiments. They were provided with water ad libitum to avoid food-induced increased acid secretion and its effect on gastric lesions. Gastric mucosal ulcer was developed by indomethacin as described (Pal, C; et al. Free Radic Biol Med, 49(2), 258-267; 2010, Biswas, K.; et al. J. Biol. Chem. 278:10993-11001; 2003, Bandyopadhyay, U.; et al. Life Sci. 71:2845-2865; 2002). Briefly, all the animals were divided into control, indomethacin and test compound group. Oral administration of indomethacin at a dose of 48 mg kg^−1 b.w was given to the fasted animals to induce gastric ulcer. In the drug-pretreated groups, the animals were given drug (50, 20, 10, 5, 3, 1 mg kg^−1 b.w.) intraperitoneally 30 min prior to ulcer induction with indomethacin. Control group received vehicle only but no indomethacin. After 4 hrs of indomethacin treatment, the animals were sacrificed under proper euthanasia and stomachs were collected. The mucosal injury was scored as ulcer index as follows: 0=no pathology; 1=one pinhead ulcer. The sum of the total scores divided by the number of animals gave the ulcer index. All the in vivo studies were done in accordance with the institute animal ethical committee guidelines. To see the effect of SEGA on diclofenac induced gastric mucosal injury, gastric mucosal damage was developed by the oral administration of diclofenac (75 mg kg^−1) and the rest of the experiment was carried out in a similar way as described for indomethacin. Diclofenac produced pinhead ulcer like indomethacin and the mucosal injury was scored as ulcer index as described above. Ethanol-induced gastric mucosal injury was developed with oral administration of 1 ml of 50% ethanol (Banerjee, R. K. (2002) Life Sci 71, 2845-2865) and after 4 hrs the animals were sacrificed and cold-restrain stress induced mucosal injury was developed by immobilizing the animals at 4° C. for 3.5 hrs (Banerjee, R. K. (2002) Life Sci 71, 2845-2865, (2003) J Biol Chem 278, 10993-11001).

The subject of experiment [3] is primary cultured gastric epithelial cells. As to the kind of experiment: TUNEL assay in cultured gastric mucosal cells. In kind it is cell-based, rat. As to conditions: in vitro cultured gastric mucosa. As for the experimental part: Gastric mucosal cells were isolated and cultured as described earlier (Pal, C; et al. Free Radic Biol Med, 49(2), 258-267; 2010) with slight modification. Mucosa from rat stomach was scraped into HBSS (pH 7.4) containing 100 U/ml penicillin and 100-μg/ml streptomycin. The mucosa was then minced and suspended in HBSS (pH 7.4), containing 0.05% hyaluronidase and 0.1% collagenase type I. The suspension was incubated for 30 min at 37° C. in 5% CO2 environment with shaking and then filtered through a sterile nylon mess. The filtrate was centrifuged at 600×g for 5 min, the cell pellet was washed with HBSS (pH 7.4) and further centrifuged. The pellet was incubated in 5 ml of Hans F-12 media in T25 flask supplemented with 10% fetal bovine serum (FBS) and 100 U/ml penicillin, 100-μg/ml streptomycin and gentamycin. Cells were cultured at 37° C. with 5% CO2 and grown to ˜90% confluence before treatment.

With `O=C(NCCc1c[nH]c2ccc(O)cc12)c1cc(O)c(O)c(O)c1` [Compound 3a, 3,4,5-trihydroxy-N-(2-(5-hydroxy-1H-indol-3-yl)ethyl)benzamide], in experiment [1] (compound 6.9 mg kg^−1 intraperitoneally before indomethacin 48 mg kg^−1 oral, rats), the “Gastric mucosal damage (ulcer index)” value came out at 30 ± 3. In addition, the “protection, indomethacin-induced gastric mucosal injury” value in experiment [1] (dose 1 mg kg^−1 i.p.) was determined as 17%; in experiment [1] (dose 3 mg kg^−1 i.p.) it was 28%; in experiment [1] (dose 5 mg kg^−1 i.p.), 45%; in experiment [1] (dose 10 mg kg^−1 i.p.), 62%; in experiment [1] (dose 20 mg kg^−1 i.p.), 82%; in experiment [1] (dose 50 mg kg^−1 i.p.), 94%. For the same compound, the “ED50, prevention of indomethacin-induced gastric mucosal damage” value in experiment [1] (intraperitoneal, rats, listed as SEGA (3a)) is 6.9 mg/kg. The “histology of gastric mucosal tissue (haematoxylin-eosin)” value in experiment [1] (pretreated indomethacin-treated rats) is “could protect gastric mucosa”. Further, the “protection, diclofenac induced ulcer” value in experiment [2] (dose 1 mg kg^−1 i.p.) came out at 22%; in experiment [2] (dose 3 mg kg^−1 i.p.), 25%; in experiment [2] (dose 5 mg kg^−1 i.p.), 42%; in experiment [2] (dose 10 mg kg^−1 i.p.), 57%; in experiment [2] (dose 20 mg kg^−1 i.p.), 72%; in experiment [2] (dose 50 mg kg^−1 i.p.) it was 82%. In addition, the “indomethacin-induced apoptosis (TUNEL) in vitro” value in experiment [3] is listed as “prevents the indomethcin-induced apoptosis”.

(Values after patent US8901317B2, “Tryptamine derivatives, their preparation and their use in gastropathy” (Council of Scientific & Industrial Research, priority 2010, dated 2014).)
